Measured values as given in patent publication US11420966B2 (ACLARIS THERAPEUTICS, INC., priority 2019, dated 2022).
pIC50: −log10 of the molar value.

Key:
JAK1 = JAK1 (Homo sapiens (Human), UniProt P23458); experiment: JAK1 enzyme activity assay (Thermo Fisher SelectScreen, Z-lyte); format: biochemical; settings: read-out: JAK1 Inhibition IC50
Method in brief: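 Z-lyte assay with 21.2-91.5 ng JAK and […] Tyr 06 in 50 mM HEPES pH 7.0, 10 mM MgCl2, 1 mM EGTA, 0.01% BRIJ-35; 1 h kinase reaction, then development reagent. 11-point dose-response from […] to 0.34 nM, 2% DMSO vehicle; IC50 from 4-parameter logistic fit of emission ratio.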

JAK2 = JAK2 (Homo sapiens (Human), UniProt O60674); experiment: JAK2 enzyme activity assay (Thermo Fisher SelectScreen, Z-lyte); format: biochemical; settings: read-out: JAK2 Inhibition IC50
Sequence of JAK2 (O60674 whole entry): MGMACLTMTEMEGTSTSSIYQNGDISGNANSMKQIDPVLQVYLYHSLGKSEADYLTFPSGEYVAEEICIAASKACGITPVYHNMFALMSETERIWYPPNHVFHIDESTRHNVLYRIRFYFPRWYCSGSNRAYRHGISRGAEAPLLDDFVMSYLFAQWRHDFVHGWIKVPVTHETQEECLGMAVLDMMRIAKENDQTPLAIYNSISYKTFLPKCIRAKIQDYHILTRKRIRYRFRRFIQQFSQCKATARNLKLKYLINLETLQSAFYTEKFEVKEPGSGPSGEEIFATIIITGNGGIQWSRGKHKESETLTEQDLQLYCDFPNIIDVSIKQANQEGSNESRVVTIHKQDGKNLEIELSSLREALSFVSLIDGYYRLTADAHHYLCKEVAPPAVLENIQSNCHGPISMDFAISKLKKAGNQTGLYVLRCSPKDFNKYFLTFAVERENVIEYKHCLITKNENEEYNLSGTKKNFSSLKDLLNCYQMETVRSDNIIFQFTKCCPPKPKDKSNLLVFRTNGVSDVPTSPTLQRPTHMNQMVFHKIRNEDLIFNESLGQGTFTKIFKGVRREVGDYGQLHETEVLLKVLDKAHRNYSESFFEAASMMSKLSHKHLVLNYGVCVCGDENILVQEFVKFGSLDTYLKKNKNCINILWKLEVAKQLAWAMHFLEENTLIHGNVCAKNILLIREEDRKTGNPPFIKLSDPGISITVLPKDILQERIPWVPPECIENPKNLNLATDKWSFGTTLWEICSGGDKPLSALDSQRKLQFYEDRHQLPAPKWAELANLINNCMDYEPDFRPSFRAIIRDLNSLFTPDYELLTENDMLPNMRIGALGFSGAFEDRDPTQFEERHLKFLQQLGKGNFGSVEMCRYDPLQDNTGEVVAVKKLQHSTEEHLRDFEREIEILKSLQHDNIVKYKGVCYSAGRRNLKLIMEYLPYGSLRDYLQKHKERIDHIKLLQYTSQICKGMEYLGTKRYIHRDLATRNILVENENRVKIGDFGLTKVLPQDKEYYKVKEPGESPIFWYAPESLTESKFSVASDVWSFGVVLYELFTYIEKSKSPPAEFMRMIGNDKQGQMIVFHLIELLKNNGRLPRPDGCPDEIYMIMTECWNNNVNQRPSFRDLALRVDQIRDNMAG
Method in brief: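 Z-lyte FRET kinase assay: 0.12-0.5 ng JAK2 with […] Tyr 06 peptide in 50 mM HEPES pH 7.5, 0.01% BRIJ-35, 10 mM MgCl2, 1 mM EGTA, 1 h reaction before development reagent. 11-point dose-response from […] to 0.34 nM, 2% DMSO; IC50 from 4-parameter fit of emission ratio.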

JAK3 (a.a. 781-1124) = JAK3 (a.a. 781-1124) (Homo sapiens (Human), UniProt P52333); experiment: JAK3 enzyme activity assay (SRCtide phosphorylation, Caliper); format: biochemical; settings: 1 uM ATP; read-out: JAK3 Inhibition IC50
Sequence of JAK3 (a.a. 781-1124) (P52333 781-1124): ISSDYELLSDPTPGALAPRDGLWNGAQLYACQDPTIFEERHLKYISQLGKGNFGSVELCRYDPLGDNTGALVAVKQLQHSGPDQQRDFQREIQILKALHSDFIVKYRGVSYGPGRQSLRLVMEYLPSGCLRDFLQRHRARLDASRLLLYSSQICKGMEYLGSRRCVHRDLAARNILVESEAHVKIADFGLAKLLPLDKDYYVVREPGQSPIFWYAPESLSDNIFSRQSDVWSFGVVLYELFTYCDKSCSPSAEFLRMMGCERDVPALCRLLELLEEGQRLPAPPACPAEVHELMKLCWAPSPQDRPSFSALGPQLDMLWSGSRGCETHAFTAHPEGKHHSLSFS

Tyk-2 = Tyk-2 (Homo sapiens (Human), UniProt P29597); experiment: Tyk-2 enzyme activity assay (Thermo Fisher SelectScreen, Z-lyte); format: biochemical; settings: read-out: Tyk-2 Inhibition IC50
Sequence of Tyk-2 (P29597 whole entry): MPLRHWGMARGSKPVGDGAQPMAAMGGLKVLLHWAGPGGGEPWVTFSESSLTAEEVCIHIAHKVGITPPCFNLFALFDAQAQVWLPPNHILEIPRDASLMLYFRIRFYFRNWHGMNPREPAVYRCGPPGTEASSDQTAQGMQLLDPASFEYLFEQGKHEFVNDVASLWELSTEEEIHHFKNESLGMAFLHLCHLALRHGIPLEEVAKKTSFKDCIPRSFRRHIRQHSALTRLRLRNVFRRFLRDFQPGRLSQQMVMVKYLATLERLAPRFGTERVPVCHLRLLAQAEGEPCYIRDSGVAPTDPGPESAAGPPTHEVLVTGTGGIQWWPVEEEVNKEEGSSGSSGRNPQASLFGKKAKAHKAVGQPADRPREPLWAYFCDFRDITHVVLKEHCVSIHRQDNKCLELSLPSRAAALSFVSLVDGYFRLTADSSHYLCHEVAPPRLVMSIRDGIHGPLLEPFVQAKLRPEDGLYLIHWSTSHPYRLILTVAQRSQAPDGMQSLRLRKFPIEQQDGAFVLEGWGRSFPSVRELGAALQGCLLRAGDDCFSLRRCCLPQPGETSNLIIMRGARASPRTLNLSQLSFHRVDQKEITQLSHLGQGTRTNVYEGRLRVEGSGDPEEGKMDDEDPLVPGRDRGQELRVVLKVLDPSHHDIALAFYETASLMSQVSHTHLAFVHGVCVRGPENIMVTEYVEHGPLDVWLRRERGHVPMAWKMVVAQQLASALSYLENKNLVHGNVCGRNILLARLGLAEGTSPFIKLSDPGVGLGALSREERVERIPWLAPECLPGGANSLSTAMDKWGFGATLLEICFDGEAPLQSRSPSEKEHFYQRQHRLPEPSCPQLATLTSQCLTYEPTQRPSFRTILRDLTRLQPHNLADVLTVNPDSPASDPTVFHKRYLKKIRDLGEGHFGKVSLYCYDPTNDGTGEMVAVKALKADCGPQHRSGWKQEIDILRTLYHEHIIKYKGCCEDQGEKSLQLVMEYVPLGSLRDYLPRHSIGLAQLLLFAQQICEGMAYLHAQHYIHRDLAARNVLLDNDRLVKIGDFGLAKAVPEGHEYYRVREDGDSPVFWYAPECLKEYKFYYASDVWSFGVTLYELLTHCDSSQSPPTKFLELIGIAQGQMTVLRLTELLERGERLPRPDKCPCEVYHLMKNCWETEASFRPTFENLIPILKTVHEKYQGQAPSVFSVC
Method in brief: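 Z-lyte FRET assay: 3.75–15 ng TYK2 with […] Tyr 03 peptide in HEPES pH 7.0, MgCl2, EGTA, BRIJ-35; 1 h reaction, then development reagent. 11-point dose-response, 2% DMSO; IC50 via 4-parameter fit of emission ratio, background without enzyme.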

[1] = system: IL-2 stimulated STAT5 phosphorylation on Tyr694 (JAK1/3); experiment: JAK1/3 cellular target modulation: IL-2 stimulated phospho-STAT5 in PBMC; format: cell-based; settings: human PBMC, IL-2 25 ng/ml; read-out: IL2-STAT5 IC50
Method in brief: (§1)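 Thawed human PBMC (200,000/well, RPMI/10% FBS) were preincubated with compound for 1 h at 37 °C, added from 10× stocks in 1% DMSO. Stimulation and read-out: IL-2 25 ng/ml, 5 min, pSTAT5 by MSD; IL-12 1.7 ng/ml, 25 min, pSTAT4 by MSD; IFNγ 10 ng/ml, 10 min, pSTAT1 by sandwich ELISA.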

[2] = system: IFNγ stimulated STAT1 phosphorylation on Tyr701 (JAK1/2); experiment: JAK1/2 cellular target modulation: IFNγ stimulated phospho-STAT1 in PBMC; format: cell-based; settings: human PBMC, IFNγ 10 ng/ml; read-out: Infγ-STAT1 IC50
Method in brief: as §1

[3] = system: IL-12 stimulated STAT4 phosphorylation on Tyr693 (JAK2/TYK2); experiment: JAK2/TYK2 cellular target modulation: IL-12 stimulated phospho-STAT4 in PBMC; format: cell-based; settings: human PBMC, IL-12 1.7 ng/ml; read-out: IL12-STAT4 IC50
Method in brief: as §1

Sequence of JAK1 (P23458 whole entry): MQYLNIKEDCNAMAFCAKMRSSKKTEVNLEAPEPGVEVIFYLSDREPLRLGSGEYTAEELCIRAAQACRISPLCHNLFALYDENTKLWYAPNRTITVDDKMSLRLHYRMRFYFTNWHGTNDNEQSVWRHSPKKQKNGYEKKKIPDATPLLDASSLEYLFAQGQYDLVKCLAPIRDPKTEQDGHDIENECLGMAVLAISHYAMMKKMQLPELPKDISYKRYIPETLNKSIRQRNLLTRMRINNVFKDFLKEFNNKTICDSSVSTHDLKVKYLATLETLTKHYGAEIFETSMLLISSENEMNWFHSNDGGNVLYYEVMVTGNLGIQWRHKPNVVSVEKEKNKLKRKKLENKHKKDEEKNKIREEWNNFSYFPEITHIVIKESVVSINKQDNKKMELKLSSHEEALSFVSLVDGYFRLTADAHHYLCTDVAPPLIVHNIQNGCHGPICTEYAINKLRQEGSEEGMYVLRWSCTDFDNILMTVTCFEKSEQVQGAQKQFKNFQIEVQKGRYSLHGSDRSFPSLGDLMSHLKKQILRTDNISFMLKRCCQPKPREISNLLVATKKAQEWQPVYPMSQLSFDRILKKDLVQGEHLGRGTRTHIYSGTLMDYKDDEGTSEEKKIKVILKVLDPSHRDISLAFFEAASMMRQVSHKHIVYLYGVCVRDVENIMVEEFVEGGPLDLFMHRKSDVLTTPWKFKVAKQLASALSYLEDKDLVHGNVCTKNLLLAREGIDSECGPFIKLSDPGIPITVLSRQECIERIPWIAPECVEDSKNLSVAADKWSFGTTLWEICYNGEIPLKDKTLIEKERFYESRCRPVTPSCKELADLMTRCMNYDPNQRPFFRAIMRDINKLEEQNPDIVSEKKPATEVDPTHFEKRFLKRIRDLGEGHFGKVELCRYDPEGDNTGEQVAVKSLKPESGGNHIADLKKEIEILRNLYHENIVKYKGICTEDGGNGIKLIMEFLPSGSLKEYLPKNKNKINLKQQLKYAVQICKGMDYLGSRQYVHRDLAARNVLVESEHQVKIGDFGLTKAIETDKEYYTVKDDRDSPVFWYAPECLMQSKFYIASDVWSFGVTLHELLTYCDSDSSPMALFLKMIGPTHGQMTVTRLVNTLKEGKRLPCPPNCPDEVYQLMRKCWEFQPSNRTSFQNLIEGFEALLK

SMILES	pIC50 (JAK1)	pIC50 (JAK2)	pIC50 (JAK3 (a.a. 781-1124))	pIC50 (Tyk-2)	pIC50 [1]	pIC50 [2]	pIC50 [3]
C[S+]([O-])c1cnc(-c2cnc3[nH]ccc3c2N[C@@H]2CCCN(C(=O)CC#N)C2)s1 (stereo partly drawn) [Example 45, 3-((3R)-3-((5-(5-(methylsulfinyl)thiazol-2-yl)-1H-pyrrolo[2,3-b]pyridin-4-yl)amino)piperidin-1-yl)-3-oxopropanenitrile]	≥ 8.00	≥ 8.00	≥ 8.00	≥ 8.00	6.00 to 7.00	6.00 to 7.00	< 6.00
CS(=O)(=O)c1cnc(-c2cnc3[nH]ccc3c2N[C@@H]2CCCN(C(=O)CC#N)C2)s1 [Example 46, (R)-3-(3-((5-(5-(methylsulfonyl)thiazol-2-yl)-1H-pyrrolo[2,3-b]pyridin-4-yl)amino)piperidin-1-yl)-3-oxopropanenitrile]	≥ 8.00	≥ 8.00	≥ 8.00	≥ 8.00	≥ 7.00	≥ 7.00	6.00 to 7.00
CS(=O)(=O)c1cnc(-c2cnc3[nH]ccc3c2N[C@@H]2CCCN(CCC#N)C2)s1 [Example 47, (R)-3-(3-((5-(5-(methylsulfonyl)thiazol-2-yl)-1H-pyrrolo[2,3-b]pyridin-4-yl)amino)piperidin-1-yl)propanenitrile]	7.00 to 8.00	7.00 to 8.00	7.00 to 8.00	7.00 to 8.00	6.00 to 7.00	< 6.00	< 6.00
CS(=O)(=O)c1cnc(-c2cnc3[nH]ccc3c2N[C@@H]2CCCN(C(=O)CC#N)C2)o1 [Example 48, (R)-3-(3-((5-(5-(methylsulfonyl)oxazol-2-yl)-1H-pyrrolo[2,3-b]pyridin-4-yl)amino)piperidin-1-yl)-3-oxopropanenitrile]	≥ 8.00	7.00 to 8.00	7.00 to 8.00	7.00 to 8.00	≥ 7.00	6.00 to 7.00	< 6.00
CSc1nccc(-c2cnc3[nH]ccc3c2N[C@@H]2CCCN(C(=O)CC#N)C2)n1 [Example 49, (R)-3-(3-((5-(2-(methylthio)pyrimidin-4-yl)-1H-pyrrolo[2,3-b]pyridin-4-yl)amino)piperidin-1-yl)-3-oxopropanenitrile]	≥ 8.00	7.00 to 8.00	≥ 8.00	7.00 to 8.00	≥ 7.00	≥ 7.00	< 6.00
N#CCC(=O)N1CCC[C@@H](Nc2c(-c3ccnc(N)n3)cnc3[nH]ccc23)C1 [Example 51, (R)-3-(3-((5-(2-aminopyrimidin-4-yl)-1H-pyrrolo[2,3-b]pyridin-4-yl)amino)piperidin-1-yl)-3-oxopropanenitrile]	≥ 8.00	≥ 8.00	≥ 8.00	7.00 to 8.00	6.00 to 7.00	6.00 to 7.00	< 6.00
Cc1nccc(-c2cnc3[nH]ccc3c2N[C@@H]2C[C@H](C)CN(C(=O)CC#N)C2)n1 [Example 52, 3-((3S,5R)-3-methyl-5-((5-(2-methylpyrimidin-4-yl)-1H-pyrrolo[2,3-b]pyridin-4-yl)amino)piperidin-1-yl)-3-oxopropanenitrile]	≥ 8.00	≥ 8.00	≥ 8.00	≥ 8.00	≥ 7.00	≥ 7.00	6.00 to 7.00
CS(=O)(=O)c1ccc(-c2cnc3[nH]ccc3c2N[C@@H]2CCCN(C(=O)CC#N)C2)nc1 [Example 55, (R)-3-(3-((5-(5-(methylsulfonyl)pyridin-2-yl)-1H-pyrrolo[2,3-b]pyridin-4-yl)amino)piperidin-1-yl)-3-oxopropanenitrile]	≥ 8.00	7.00 to 8.00	≥ 8.00	≥ 8.00	≥ 7.00	6.00 to 7.00	< 6.00
N#CCC(=O)N1CCC[C@@H](Nc2c(-c3ccn(CCO)n3)cnc3[nH]ccc23)C1 [Example 62, (R)-3-(3-((5-(1-(2-hydroxyethyl)-1H-pyrazol-3-yl)-1H-pyrrolo[2,3-b]pyridin-4-yl)amino)piperidin-1-yl)-3-oxopropanenitrile]	≥ 8.00	≥ 8.00	≥ 8.00	7.00 to 8.00	≥ 7.00	6.00 to 7.00	< 6.00
N#CCC(=O)N1CCC[C@@H](Nc2c(-c3cccc(CO)n3)cnc3[nH]ccc23)C1 [Example 63]	≥ 8.00	≥ 8.00	≥ 8.00	7.00 to 8.00	≥ 7.00	6.00 to 7.00	< 6.00
C[C@H]1C[C@@H](Nc2c(-c3cccc(CO)n3)cnc3[nH]ccc23)CN(C(=O)CC#N)C1 [Example 64, 3-((3R,5S)-3-((5-(6-(hydroxymethyl)pyridin-2-yl)-1H-pyrrolo[2,3-b]pyridin-4-yl)amino)-5-methylpiperidin-1-yl)-3-oxopropanenitrile]	≥ 8.00	≥ 8.00	≥ 8.00	≥ 8.00	≥ 7.00	≥ 7.00	< 6.00
C[C@H]1C[C@@H](Nc2c(-c3ncc(S(C)(=O)=O)s3)cnc3[nH]ccc23)CN(C(=O)CC#N)C1 [Example 65, 3-((3S,5R)-3-methyl-5-((5-(5-(methylsulfonyl)thiazol-2-yl)-1H-pyrrolo[2,3-b]pyridin-4-yl)amino)piperidin-1-yl)-3-oxopropanenitrile]	≥ 8.00	≥ 8.00	≥ 8.00	≥ 8.00	≥ 7.00	≥ 7.00	≥ 7.00
C[C@H]1C[C@@H](Nc2c(-c3nccs3)cnc3[nH]ccc23)CN(CC2CC2(F)F)C1 (stereo partly drawn) [Example 67, N-((3R,5S)-1-((2,2-difluorocyclopropyl)methyl)-5-methylpiperidin-3-yl)-5-(thiazol-2-yl)-1H-pyrrolo[2,3-b]pyridin-4-amine]	7.00 to 8.00	7.00 to 8.00	≥ 8.00	7.00 to 8.00	6.00 to 7.00	6.00 to 7.00	< 6.00
C[C@H]1C[C@@H](Nc2c(-c3nncs3)cnc3[nH]ccc23)CN(C(=O)CC#N)C1 [Example 68, 3-((3R,5S)-3-((5-(1,3,4-thiadiazol-2-yl)-1H-pyrrolo[2,3-b]pyridin-4-yl)amino)-5-methylpiperidin-1-yl)-3-oxopropanenitrile]	≥ 8.00	≥ 8.00	≥ 8.00	≥ 8.00	≥ 7.00	≥ 7.00	≥ 7.00
